Source: patent publication US7723091B2 (priority 1999, dated 2010)
Where two headings read alike, the source gives them in different places. Marks after values point to notes of the source that are not given here.

Key:
[1] = system: E. acervulina, E. maxima and Clostridium perfringens; type: in vivo, broiler chickens; conditions: Trial IV; infected; PI-PLC 30 U/lb, Man. 121 MU/ton, BMD 50 g/ton, salinomycin 60 g/ton
[2] = system: E. acervulina, E. maxima, and C. perfringens; type: in vivo, broiler chickens; conditions: Trial III; for Feed Consumption Day 0-21 / Feed Consumption Day 8-21 / Feed Conversion Day 0-21 / Feed Conversion Day 8-21 / Lesion Scores E. acer. / Lesion Scores E. max. / Live Wt. Day 21 / Weight AF/G Treatment (weight adjusted feed conversion) / Weight Gain Day 0-21 / Weight Gain Day 8-21: infected
[3] = system: Eimeria tenella sporozoites; experiment: In vitro invasion of BHK cells by Eimeria tenella sporozoites; type: cell-based
Method: Eineria acervulina sporozoites or Eimeria tenella sporozoites and cultured baby hamster kidney (BHK) cells were prepared by published methods. See Augustine, Avian and Poultry Biology Reviews 1:113-122, 2000. For cell pretreatment, cell cultures were overlaid with dilutions of enzymes as described in Table 11, and examined for morphological changes from 5 to 45 min post overlay. After 45 minutes, the monolayer cultures were washed twice, then inoculated with untreated E. acervulina or E. tenella sporozoites. For application during infection, sporozoites were suspended in the appropriate dilution of the enzyme and inoculated immediately into the cell cultures. After 45 minutes incubation, cultures were fixed, stained, and the invasion was quantified.
Observations were made looking for changes in gross morphology of sporozoites or cells due to enzyme treatment. At the enzyme levels used in these experiments, no morphological change was noted. The sporozoite invasion of the cultured cells was measured after the two methods of enzyme treatment, as well as without enzyme treatment, by histological staining and microscopy procedures. See Augustine, supra.

C. parvum = experiment: Anti-cryptosporidial activity in MDCK cell cultures (chemiluminescence immunoassay); type: cell-based, Cryptosporidium parvum
Method: The enzyme PI-PLC was evaluated for anti-cryptosporidial activity and toxicity at concentrations ranging from 0.001-30 U/ml were performed using 4-day-old Madin-Darby canine kidney (MDCK) cells. Enzyme units were defined as by the method in Example 4 but measured as in Example 9. The preparation of enzyme used was from recombinant Bacillus megaterium. Treatment was initiated 3 hours after infection and continued through 48 hours.
Chemiluminescence Immunoassay. Before infection, oocysts were washed and resuspended in DMEM base with 0.75% sodium taurocholate and incubated for 10 min at 37° C. (You et al., FEMS Microbiol. Letters 136:251-256, 1996; You et al., J. Antimicrobial. Chemother. 41:293-296, 1998). The excystation mixture was diluted with Ultraculture medium, promptly dispensed in plates containing MDCK cells, at 100% confluence, and maintained in Ultraculture medium for 4 days. The inoculum was incubated with the cells for3 h before washing with PBS and replaced with fresh Ultraculture medium with or without test enzyme. Plates were incubated at 37° C., in a 5% CO2 air atmosphere for 48 h. Cultures were washed with PBS and fixed with Bouin's solution.
The fixed plates were washed with TBST buffer (20 mM Tris-HCl (pH 7.5), 150 mM NaCl, 0.05% Tween-20) and blocked with 1% BSA-TBST (TBST buffer containing 1% bovine serum albumin) for 30 min at 25° C. with gentle shaking. Rabbit anti-Cryptosporidium parvum sera (1:200 dilution) was applied to the plates and incubated for 1 hr. After washing with TBST, the samples were sequentially incubated with biotin-labeled goat anti-rabbit IgG and horseradish peroxidase-labeled streptavidin (working dilution, 1:1000, KPL Inc., Gaithersburg, Md.). Enhanced Luminol (4-iodophenol and hydrogen peroxide, Aldrich Chemical Co. Inc., Milwaukee, Wis.) was used as a substrate. The plates were read with an ML3000 Luminometer (Dynatech Lab., Chantilly, Va.) and the relative light units (RLU) were determined. Means of RLU were calculated from 4 replicate wells and all experiments were repeated at least twice.
A second set of experiments were performed to evaluate enzyme specificity. Sporozoites were treated with the enzyme at various concentrations for 45 min and briefly washed. The treated sporozoites were then allowed to infect untreated host cells and develop and reproduce for 48 hours. In a separate experiment, host cells were incubated with the enzyme at various concentrations, washed and infected with untreated sporozoites. As shown below (Table 14), treatment of either sporozoite or host cells with the enzyme results in partial inhibition. A dose dependent inhibition was not observed in this concentration range. This may be due to the short incubation period of the enzyme with host or parasite cells (45 min) or partial or incomplete cleavage of host/parasite receptors. Additionally, other host/parasite receptors are probably involved in infection and account for the growth observed in the host cells.

[4] = PI-PLC 10 U/lb (T5; T7 with mannanase 100 MU/ton)
[5] = PI-PLC 30 U/lb (T6; T8 with mannanase 100 MU/ton; T10 with medication)
[6] = Host cells treated before infection (washed), 0.01 Unit/ml
[7] = Host cells treated before infection (washed), 0.03 Unit/ml
[8] = Host cells treated before infection (washed), 0.1 Unit/ml
[9] = Host cells treated before infection (washed), 0.3 Unit/ml
[10] = Host cells treated before infection (washed), 1 Unit/ml
[11] = Sporozoite treated before infection (45 min, washed), 0.01 Unit/ml
[12] = Sporozoite treated before infection (45 min, washed), 0.03 Unit/ml
[13] = Sporozoite treated before infection (45 min, washed), 0.1 Unit/ml
[14] = Sporozoite treated before infection (45 min, washed), 0.3 Unit/ml
[15] = Sporozoite treated before infection (45 min, washed), 1 Unit/ml
[16] = enzyme added 3 h post infection, 48 h, 0.01 Unit/mL
[17] = enzyme added 3 h post infection, 48 h, 0.03 Unit/mL
[18] = enzyme added 3 h post infection, 48 h, 0.1 Unit/mL
[19] = enzyme added 3 h post infection, 48 h, 0.3 Unit/mL
[20] = enzyme added 3 h post infection, 48 h, 1 Unit/mL

phosphatidylinositol specific phospholipase C [Recombinant PI-PLC]
Feed Conversion Day 0-21 [1]: 1.701 | Feed Conversion Day 8-21 [1]: 1.778 | Lesion Score E. acer. Upper [1]: 2.25 | Lesion Score E. max. Middle [1]: 1.50 | Live Weight Day 21 [1]: 0.486 | Weight Gain Day 0-21 [1]: 0.451 | Weight Gain Day 8-21 [1]: 0.347 | improvement in AF/G worsening present in the infected control (T3 v. T1) ([2]; infected birds, mannanase 100 MU per ton, PI-PLC in the feed): 33-41% | Feed Consumption Day 0-21 [2, 4]: 10.456^cd | Feed Consumption Day 8-21 [2, 4]: 8.228^abc | Feed Conversion Day 0-21 [2, 4]: 1.560^bc | Feed Conversion Day 8-21 [2, 4]: 1.591b^c | Lesion Scores E. acer. [2, 4]: 1.34^a | Lesion Scores E. max. [2, 4]: 1.19^bc | Live Wt. Day 21 [2, 4]: 0.635^c | Weight AF/G Treatment (weight adjusted feed conversion) [2, 4]: 1.512 | Weight Gain Day 0-21 [2, 4]: 0.594^c | Weight Gain Day 8-21 [2, 4]: 0.477^b | Feed Consumption Day 0-21 [2, 5]: 10.266^d | Feed Consumption Day 8-21 [2, 5]: 7.982^c | Feed Conversion Day 0-21 [2, 5]: 1.572^b | Feed Conversion Day 8-21 [2, 5]: 1.621^ab | Lesion Scores E. acer. [2, 5]: 1.16^ab | Lesion Scores E. max. [2, 5]: 1.13^cd | Live Wt. Day 21 [2, 5]: 0.638^c | Weight AF/G Treatment (weight adjusted feed conversion) [2, 5]: 1.526 | Weight Gain Day 0-21 [2, 5]: 0.597^c | Weight Gain Day 8-21 [2, 5]: 0.483^b | Invasion counts (mean ± standard error of the mean) ([3]; Application of Enzyme During Infection, Test 1, B. cereus PI-PLC 0.0403 U/mL, recombinant 0.261 U/mL, mannanase 5100 U/mL, listed as PI-PLC from Recombinant B. megateriaum): 28 ± 2^b | Invasion counts (mean ± standard error of the mean) ([3]; Application of Enzyme During Infection, Test 1, recombinant PI-PLC 0.0261 U/mL): 18 ± 1^c | Invasion counts (mean ± standard error of the mean) ([3]; Application of Enzyme During Infection, Test 2, B. cereus PI-PLC 0.0403 U/mL, recombinant 0.261 U/mL, listed as PI-PLC from Recombinant B. megateriaum): 39 ± 4^ab | Invasion counts (mean ± standard error of the mean) ([3]; Application of Enzyme During Infection, Test 2, recombinant PI-PLC 0.0261 U/mL): 29 ± 1^b | Invasion counts (mean ± standard error of the mean) ([3]; Cell Pretreatment with Enzyme Followed by Wash, Test 1, B. cereus PI-PLC 0.0403 U/mL, recombinant 0.261 U/mL, mannanase 5100 U/mL, listed as PI-PLC from Recombinant B. megateriaum): 30 ± 1^c | Invasion counts (mean ± standard error of the mean) ([3]; Cell Pretreatment with Enzyme Followed by Wash, Test 2, B. cereus PI-PLC 0.0403 U/mL, recombinant 0.261 U/mL, mannanase 5100 U/mL, listed as PI-PLC from Recombinant B. megateriaum): 15 ± 0^a | Invasion counts (mean ± standard error of the mean) ([3]; Cell Pretreatment with Enzyme Followed by Wash, Test 2, recombinant PI-PLC 0.0261 U/mL): 17 ± 1^a | Mean Number of Cryptosporidium per microtiter plate well (C. parvum; [6]): 543.85 | Percent Inhibition (C. parvum; [6]): 56.84% | Mean Number of Cryptosporidium per microtiter plate well (C. parvum; [7]): 522.66 | Percent Inhibition (C. parvum; [7]): 58.53% | Mean Number of Cryptosporidium per microtiter plate well (C. parvum; [8]): 455.88 | Percent Inhibition (C. parvum; [8]): 63.82% | Mean Number of Cryptosporidium per microtiter plate well (C. parvum; [9]): 629.24 | Percent Inhibition (C. parvum; [9]): 50.07% | Mean Number of Cryptosporidium per microtiter plate well (C. parvum; [10]): 393.64 | Percent Inhibition (C. parvum; [10]): 68.76% | Mean Number of Cryptosporidium per microtiter plate well (C. parvum; [11]): 542.15 | Percent Inhibition (C. parvum; [11]): 56.98% | Mean Number of Cryptosporidium per microtiter plate well (C. parvum; [12]): 527.59 | Percent Inhibition (C. parvum; [12]): 58.13% | Mean Number of Cryptosporidium per microtiter plate well (C. parvum; [13]): 536.80 | Percent Inhibition (C. parvum; [13]): 57.40% | Mean Number of Cryptosporidium per microtiter plate well (C. parvum; [14]): 433.04 | Percent Inhibition (C. parvum; [14]): 65.64% | Mean Number of Cryptosporidium per microtiter plate well (C. parvum; [15]): 412.40 | Percent Inhibition (C. parvum; [15]): 67.27% | inhibition (C. parvum; at a concentration of 0.1 U/mL (FIG. 1), enzyme added 3 h after infection for 48 hours): Approximately 50% | concentration range with anti-cryptosporidial activity in vitro (C. parvum; enzyme added 3 h after infection for 48 hours): 0.01-1 U/mL | Mean Number of Cryptosporidium per microtiter plate well (C. parvum; [16]): 1167.78 | Percent Inhibition (C. parvum; [16]): 7.33% | Mean Number of Cryptosporidium per microtiter plate well (C. parvum; [17]): 912.15 | Percent Inhibition (C. parvum; [17]): 27.62% | Mean Number of Cryptosporidium per microtiter plate well (C. parvum; [18]): 595.53 | Percent Inhibition (C. parvum; [18]): 52.74% | Mean Number of Cryptosporidium per microtiter plate well (C. parvum; [19]): 286.5 | Percent Inhibition (C. parvum; [19]): 77.26% | Mean Number of Cryptosporidium per microtiter plate well (C. parvum; [20]): 285.28 | Percent Inhibition (C. parvum; [20]): 77.36%
